# Measured values reported in US20100004704A1, “METHOD FOR TREATING A CARDIAC RHYTHM DISTURBANCE” (The Cleveland Clinic Foundation, priority 2008, published 2010).
# System: open-chest canines
# Test: Dobutamine infusion followed by vagal (sinus node fat pad) stimulation, hemodynamics in open-chest canines
# Format: in vivo
# Protocol: A study was done to assess the effects of dobutamine administration followed by vagal stimulation on sinus tachycardia. The study was done using 4 open-chest canines. Dobutamine was infused at a rate of 2.5-7.5 μg/kg/min to increase the cardiac contractility and the sinus rate at least 30 beats per minute. Vagal nerve stimulation was applied at the epicardial sinus node fat pad, located at the junction of the right pulmonary vein and the right atrium. Vagal stimulation was done with an electrical lead comprising a silicone plate with four platinum electrodes imbedded therein. Rectangular current pulses were delivered with intensity in the range of 1 to 5 mA, duration of pulse in the range of 0.1 ms to 1 ms, and frequency of repetition of the pulses between 20-30 Hz. To avoid tissue polarization, the polarity of consecutive pulses was alternated. Vagal nerve stimulation was administered to slow the sinus rate to the control level. Hemodynamic data was collected and compared in canines during control, during administration of dobutamine, and during both dobutamine and vagal stimulation.
# [1] = dobutamine + vagal stimulation at sinus node fat pad
# [2] = dobutamine infused 2.5-7.5 μg/kg/min, no vagal stimulation
smiles,measurement,setting,value
"CC(CCc1ccc(O)cc1)NCCc1ccc(O)c(O)c1 (stereo not drawn) [Dobutamine, dobutamine]",RR interval,"dobutamine 2.5-7.5 μg/kg/min + vagal stimulation at sinus node fat pad (1-5 mA, 0.1-1 ms, 20-30 Hz)",560 ± 16 ms
same,+dp/dt,[1],2980 ± 602 mmHg/s
same,CO,[1],3.6 ± 0.8 L/min
same,DBP,[1],74 ± 7 mmHg
same,LVEDP,[1],7.6 ± 1.5 mmHg
same,LVSP,[1],120 ± 16 mmHg
same,SBP,[1],126 ± 12 mmHg
same,−dp/dt,[1],−1897 ± −313 mmHg/s
same,"heart rate, systolic blood pressure (SBP), diastolic blood pressure (DBP), left ventricular systolic pressure (LVSP) (and its ±dp/dt), and cardiac output (CO)","dobutamine administration vs. control, open-chest canines",significantly increased
same,RR interval,"dobutamine infused 2.5-7.5 μg/kg/min, 4 open-chest canines, no vagal stimulation",421 ± 36 ms
same,+dp/dt,[2],3607 ± 861 mmHg/s
same,CO,[2],4.2 ± 0.9 L/min
same,DBP,[2],84 ± 7 mmHg
same,LVEDP,[2],6.9 ± 2.2 mmHg
same,LVSP,[2],130 ± 13 mmHg
same,SBP,[2],135 ± 18 mmHg
same,−dp/dt,[2],−2259 ± −495 mmHg/s
same,sinus rate increase,"vagal stimulation combined with dobutamine, all other hemodynamic benefits preserved",eliminated sinus rate increase
